ChEMBL document CHEMBL1155017, “The use of natural product scaffolds as leads in the search for trypanothione reductase inhibitors” (Bioorg Med Chem, 2008)
Activity calls are given as the source filed them. The rule behind the calls is not given here.

Assays:
[1] = molecular target: T1, Glutathione reductase (Saccharomyces cerevisiae S288c) (UniProt P41921); test: Inhibition of yeast glutathione reductase at 10 uM
T1 sequence (whole entry): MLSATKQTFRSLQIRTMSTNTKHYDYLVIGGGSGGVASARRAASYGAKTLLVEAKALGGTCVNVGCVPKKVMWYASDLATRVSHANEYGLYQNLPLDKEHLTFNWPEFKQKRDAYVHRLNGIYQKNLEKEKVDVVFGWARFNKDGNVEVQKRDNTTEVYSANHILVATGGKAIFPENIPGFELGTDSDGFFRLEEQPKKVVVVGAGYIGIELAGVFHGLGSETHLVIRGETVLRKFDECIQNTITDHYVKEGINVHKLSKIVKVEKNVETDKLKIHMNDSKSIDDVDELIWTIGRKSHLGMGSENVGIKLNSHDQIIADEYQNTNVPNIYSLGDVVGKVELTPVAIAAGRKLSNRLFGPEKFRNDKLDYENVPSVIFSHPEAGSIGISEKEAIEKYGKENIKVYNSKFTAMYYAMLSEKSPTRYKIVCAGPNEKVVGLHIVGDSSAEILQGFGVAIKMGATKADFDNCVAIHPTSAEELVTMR

Trypanothione reductase [2] = molecular target: T2, Trypanothione reductase (Trypanosoma cruzi, UniProt P28593); test: (§1) Inhibition of Trypanosoma cruzi recombinant trypanothione reductase
T2 sequence (P28593 whole entry): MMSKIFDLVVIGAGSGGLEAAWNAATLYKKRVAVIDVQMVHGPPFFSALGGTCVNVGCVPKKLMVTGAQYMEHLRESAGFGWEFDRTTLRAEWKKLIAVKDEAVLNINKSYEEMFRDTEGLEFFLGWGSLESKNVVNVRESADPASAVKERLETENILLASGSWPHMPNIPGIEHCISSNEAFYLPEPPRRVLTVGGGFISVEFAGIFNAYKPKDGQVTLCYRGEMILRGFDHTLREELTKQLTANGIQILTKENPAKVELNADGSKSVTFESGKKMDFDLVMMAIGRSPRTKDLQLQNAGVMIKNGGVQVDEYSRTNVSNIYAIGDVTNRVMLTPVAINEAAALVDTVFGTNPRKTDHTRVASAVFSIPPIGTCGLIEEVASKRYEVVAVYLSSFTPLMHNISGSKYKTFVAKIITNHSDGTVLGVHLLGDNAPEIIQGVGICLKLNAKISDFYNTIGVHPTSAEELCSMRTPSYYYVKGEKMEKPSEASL

[3] = molecular target: Trypanothione reductase (Trypanosoma cruzi) (UniProt P28593); test: Inhibition of Trypanosoma cruzi recombinant trypanothione reductase at 85 uM
Sequence of Trypanothione reductase (Trypanosoma cruzi) (P28593 whole entry, looked up): as the sequence (P28593 whole entry) above

[4] = molecular target: T1, Glutathione reductase (Saccharomyces cerevisiae S288c); test: Inhibition of yeast glutathione reductase at 100 uM
Leishmania amazonensis [5] = test: Antileishmanial activity against Leishmania amazonensis MHOM/BR/76/LTB-012 promastigotes at 100 uM after 72 hrs by alamar blue assay; assay type: functional; settings: MHOM/BR/76/LTB-012, 72 h, read-out: GI
NIH3T3 = test: Cytotoxicity against mouse NIH3T3 cells; assay type: cell-based
Leishmania infantum = test: Antileishmanial activity against Leishmania infantum promastigotes; assay type: functional, organism-based
Leishmania amazonensis [6] = test: Antileishmanial activity against Leishmania amazonensis MHOM/BR/76/LTB-012 promastigotes after 72 hrs by alamar blue assay; assay type: functional, organism-based; settings: MHOM/BR/76/LTB-012, 72 h
Trypanothione reductase [7] = molecular target: T2, Trypanothione reductase; test: Inhibition of Trypanosoma cruzi recombinant trypanothione reductase-substrate complex
[8] = molecular target: Trypanothione reductase (Trypanosoma cruzi) (UniProt P28593); test: Inhibition of Trypanosoma cruzi recombinant trypanothione reductase at 200 uM
[9] = molecular target: Trypanothione reductase (Trypanosoma cruzi) (UniProt P28593); test: Inhibition of Trypanosoma cruzi recombinant trypanothione reductase at 400 uM
[10] = molecular target: Trypanothione reductase (Trypanosoma cruzi) (UniProt P28593); test: Inhibition of Trypanosoma cruzi recombinant trypanothione reductase at 800 uM
[11] = molecular target: Trypanothione reductase (Trypanosoma cruzi) (UniProt P28593); test: Inhibition of Trypanosoma cruzi recombinant trypanothione reductase at 12.2 uM
[12] = molecular target: Trypanothione reductase (Trypanosoma cruzi) (UniProt P28593); test: as §1
Trypanothione reductase [13] = molecular target: T3, Trypanothione reductase (Crithidia fasciculata, UniProt P39040); test: Inhibition of Crithidia fasciculata free trypanothione reductase
T3 sequence (P39040 whole entry): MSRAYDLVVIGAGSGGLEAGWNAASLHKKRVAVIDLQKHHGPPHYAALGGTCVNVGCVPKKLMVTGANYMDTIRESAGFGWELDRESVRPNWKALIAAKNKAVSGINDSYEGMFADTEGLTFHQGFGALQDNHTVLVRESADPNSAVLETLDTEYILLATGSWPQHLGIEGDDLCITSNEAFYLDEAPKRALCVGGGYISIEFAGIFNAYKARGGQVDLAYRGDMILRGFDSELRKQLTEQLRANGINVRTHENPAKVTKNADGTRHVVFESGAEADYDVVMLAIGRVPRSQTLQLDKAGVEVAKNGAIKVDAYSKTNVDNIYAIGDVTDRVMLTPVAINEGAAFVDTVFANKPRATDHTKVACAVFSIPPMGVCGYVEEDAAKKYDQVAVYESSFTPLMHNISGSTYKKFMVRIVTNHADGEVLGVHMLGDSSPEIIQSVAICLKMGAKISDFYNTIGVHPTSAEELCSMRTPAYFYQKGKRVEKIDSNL

Trypanothione reductase [14] = molecular target: T3, Trypanothione reductase; test: Inhibition of Crithidia fasciculata trypanothione reductase-substrate complex

SMILES	inhibition [3]	inhibition of growth at 100 µM (Leishmania amazonensis [5])	also measured
CN(C)c1ccc2nc3ccc(=[N+](C)C)cc-3sc2c1			inhibition [1]: 30%
COc1ccc2c3c(n(CCCN(C)C)c2c1)C(C)=NCC3	50%	57%	Ki (Trypanothione reductase [2]): 35.1 µM; inhibition [4]: 6%
CN(C)CCc1cn(C)c2ccc(O)cc12	9%		
O=C(/C=C/C=C/c1ccc2c(c1)OCO2)N1CCCCC1	11%		
CC[C@@]12CCCN3CC[C@]4(c5cccc(OC)c5N(C(C)=O)[C@@H]4CC1)[C@H]32 [ASPIDOSPERMINE]	43%	89%	IC50 (Trypanothione reductase [2]): 90.4 µM; Ki (Trypanothione reductase [2]): 64.6 µM; Activity [4]: inactive; IC50 (NIH3T3): 46.2 µM
N#Cc1ccc(C2NCCc3c2[nH]c2ccccc32)cc1 (centres undefined)			Ki (Trypanothione reductase [2]): 2 µM
Cc1nccc2c1[nH]c1ccccc12	10%		
CC1=CC2c3cccc4[nH]cc(c34)C[C@H]2N(C)C1 (some centres undefined)	28%	70%	
COc1ccc2c3c([nH]c2c1)C(C)=NCC3 [HARMALINE]	19%		IC50 (Leishmania infantum): 119 µM
N=C(N)c1ccc(OCCCCCOc2ccc(C(=N)N)cc2)cc1 [PENTAMIDINE]		86%	IC50 (Leishmania amazonensis [6]): 0.29 µM
C[C@@H]1CN(CCCn2c3ccccc3c3ccccc32)C[C@H](C)N1	4%		
COc1ccc2cc1Oc1ccc(cc1)C[C@H]1c3c(cc4c(c3Oc3cc5c(cc3OC)CCN(C)[C@@H]5C2)OCO4)CCN1C [CEPHARANTHINE]			Ki (Trypanothione reductase [2]): 7.6 µM; Ki (Trypanothione reductase [7]): 51.6 µM
CN(C)Cc1cn(C)c2ccccc12	8%		
O=c1[nH]c2c(c(=O)[nH]1)CNc1ccccc1S2 [PYRIMIDOBENZOTHIAZEPINE]	10%	14%	
Cc1nccc2c3ccccc3n(CCCN(C)C)c12	22%		
CN(C)CCCn1c2c(c(=O)n(CCCN(C)C)c1=O)Nc1ccccc1S2	62%	11%	Ki (Trypanothione reductase [2]): 26.9 µM; Activity [4]: inactive

SMILES	inhibition [3]	inhibition of growth at 100 µM (Leishmania amazonensis [5])	also measured
CC[C@H]1[C@@H]2C[C@H]3[C@@H]4N(C)c5ccccc5[C@]45C[C@@H]([C@@H]2[C@H]5O)N3[C@@H]1O [AJMALINE]	12%	5%	
O=c1cc(-c2ccc(O)cc2)oc2cc(O)cc(O)c12	13%		
c1ccc2c(c1)[nH]c1cnccc12	10%		
C[C@H]1[C@H]2CC[C@H]3[C@@H]4CC=C5C[C@@H](N(C)C)CC[C@]5(C)[C@H]4CC[C@]23CN1C [CONESSINE]	25%	97%	inhibition [8]: 45%; inhibition [9]: 73%; inhibition [10]: 91%
C=CC1CN2CCC1CC2C(O)c1ccnc2ccccc12 (centres undefined)	18%	51%	
CN(C)CCCN1c2ccccc2Sc2ccc(Cl)cc21 [CHLORPROMAZINE]			IC50 (Trypanothione reductase [2]): 5.8 µM; Ki (Trypanothione reductase [2]): 3.2 µM; inhibition [11]: 70%
O=c1[nH]c2c(c(=O)[nH]1)Nc1ccccc1S2 [PYRIMIDOBENZOTHIAZINE]	36%	15%	
COc1cc(CC2NCCc3c2[nH]c2ccccc32)ccc1O (centres undefined)			Ki (Trypanothione reductase [2]): 7 µM
COC(=O)NC1CCc2cc(OC)c(OC)c(OC)c2-c2ccc(OC)c(=O)cc21 (centres undefined) [COLCHININE]	8%	6%	
CN(C)CCCn1c2ccccc2c2ccncc21	20%		
COc1ccc(-c2cc(=O)c3c(O)cc(OC)cc3o2)cc1	12%		
COc1ccc2c3ccnc(C)c3n(CCCN(C)C)c2c1	13%		
COc1ccc2c(c1)[nH]c1c(C)nccc12	11%		
O=C1CC[C@]23/C=C/C(=O)NCCCCNCCCNC(=O)/C=C\c4ccc(c2c4)O[C@@H]3C1			Kinact [12]: 0.116 min⁻¹; Ki (Trypanothione reductase [2]): 144 µM
O=C(CCc1ccc(O)c(O)c1)NCCCNCCCCNCCCNC(=O)CCc1ccc(O)c(O)c1 [KUKOAMINE A]			Ki (Trypanothione reductase [13]): 1.8 µM; Ki (Trypanothione reductase [14]): 13 µM
